Measurements: ChEMBL document CHEMBL1201862, “PubChem BioAssay data set” (2004)
Activity calls are given as the source filed them.

Columns and labels:
[1] = molecular target: DNA dC->dU-editing enzyme APOBEC-3G (Homo sapiens, UniProt Q9HC16); type: functional;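 also: Dose-response counterscreen measuring inhibition of APOBEC3G DNA deaminase activity, run while confirming APOBEC3A inhibitors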
[2] = molecular target: DNA dC->dU-editing enzyme APOBEC-3A (Homo sapiens, UniProt P31941); test: Dose Response confirmation of small molecule APOBEC3A DNA Deaminase Inhibitors via a fluorescence-based single-stranded DNA deaminase assay. [Related pubchem assays (depositor defined):AID493011, AID493024]; type: functional
[3] = Luminescence Cell-Based Dose Confirmation HTS to Identify Activators of 5'UTR Stem-Loop Driven Alpha-Synuclein mRNA Translation in H4 Neuroglioblastoma Cells. [Related pubchem assays: 1829 (Project Summary), 1814 (Primary HTS)]; type: functional
[4] = reduction of Shn3 3'UTR-driven luciferase in osteoblasts – cell-based, Clone20 osteoblasts, firefly luciferase, cherry-picked, dose response (AID 624132); type: functional;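 also: firefly luciferase luminescence from reporter carrying the Shn3 3'UTR in osteoblasts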
[5] = Trypanosoma cruzi growth suppression in host cells – NIH3T3 host cells, beta-gal luminescence, confirmation (AID 2044); type: functional, cell-based;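 also: intracellular parasites grown in NIH/3T3 mouse fibroblasts as host cells; luminescent beta-galactosidase reporter signal from transgenic T. cruzi replicating inside host cells; inhibitors lower the luminescence signal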
[6] = non-specific 3'UTR reporter inhibition in Clone20-Shn3RL – cell-based, Renilla luciferase, cherry-picked, counter-screen for Shn3 inhibitor project, dose response (AID 624133); type: functional
HEK293 = test: EBV LMP1 TES2 canonical NF-kB signalling blockers – cell-based, HEK293, luciferase, cherry-pick, dose response (AID 588343); type: functional; settings: Homo sapiens
[7] = fluconazole-exposed Candida albicans growth modulators – fluorescence, retest, confirmation (AID 2467); type: functional, cell-based
INS1 = test: INS-1E survival protection against cytokine death – cell-based, luminescence, retest, dose response (AID 449756); type: functional; settings: Rattus norvegicus;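 also: cell death triggered by IL-1 beta plus TNF-alpha plus IFN-gamma mixture; protective hits raise ATP signal compared with cytokine alone wells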
[8] = molecular target: T1, Endoribonuclease toxin MazF (Escherichia coli K-12, UniProt P0AE70); test: substrate-only fluorescence increase artefacts – biochemical, single-stranded RNase substrate, counter-screen for MazEF activator project, dose response (AID 588502); type: functional
T1 sequence (P0AE70 whole entry): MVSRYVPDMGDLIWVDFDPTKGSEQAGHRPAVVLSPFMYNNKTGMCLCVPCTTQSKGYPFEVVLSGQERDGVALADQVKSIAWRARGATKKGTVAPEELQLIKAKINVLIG

[9] = loss of viability in HepG2 cells – cell-based, CellTiter-Glo, cherry-picked, cytotoxicity control for Shn3 inhibitor project, dose response (AID 624134); type: functional
[10] = molecular target: T2, RNA-binding protein pos-1 (Caenorhabditis elegans, UniProt G5EF15); test: disruptors of C. elegans POS-1 RNA interaction – biochemical, fluorescence polarization, dose response (AID 1964);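 also: purified POS-1 fused to maltose binding protein made in E. coli; potency of compounds blocking POS-1 binding to fluorescent RNA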
T2 sequence (G5EF15 whole entry): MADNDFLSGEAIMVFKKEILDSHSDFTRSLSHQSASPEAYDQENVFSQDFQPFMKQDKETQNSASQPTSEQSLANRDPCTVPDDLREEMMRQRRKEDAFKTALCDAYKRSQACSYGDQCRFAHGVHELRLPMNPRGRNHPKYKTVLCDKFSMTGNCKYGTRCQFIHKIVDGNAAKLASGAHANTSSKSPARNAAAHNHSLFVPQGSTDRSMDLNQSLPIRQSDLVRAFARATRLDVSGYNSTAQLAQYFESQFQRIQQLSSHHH

[11] = NIH3T3 cell viability loss – ATP luminescence, mouse fibroblasts, counter-screen, dose response (AID 2010); type: functional, cell-based;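 also: cells exposed to compound for about 90 hours before reading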
[12] = molecular target: T3, Zinc finger protein mex-5 (Caenorhabditis elegans, UniProt Q9XUB2); test: potency of MEX-5 RNA-binding blockers – biochemical, C. elegans, fluorescence polarization, dose response (AID 1960)
T3 sequence (Q9XUB2 whole entry): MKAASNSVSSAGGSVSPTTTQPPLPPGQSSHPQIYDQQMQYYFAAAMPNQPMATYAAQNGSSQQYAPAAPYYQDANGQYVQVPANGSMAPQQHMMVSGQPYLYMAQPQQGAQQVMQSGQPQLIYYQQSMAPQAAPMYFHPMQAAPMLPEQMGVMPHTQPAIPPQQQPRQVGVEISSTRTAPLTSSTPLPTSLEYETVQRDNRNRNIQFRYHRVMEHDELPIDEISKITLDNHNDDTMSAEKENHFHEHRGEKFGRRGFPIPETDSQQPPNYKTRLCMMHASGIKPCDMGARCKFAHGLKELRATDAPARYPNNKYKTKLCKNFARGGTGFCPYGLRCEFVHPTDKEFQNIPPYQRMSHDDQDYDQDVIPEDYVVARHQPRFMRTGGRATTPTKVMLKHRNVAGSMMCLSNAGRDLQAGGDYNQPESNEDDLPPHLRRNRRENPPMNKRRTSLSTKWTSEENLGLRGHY

H4 = test: Luminescence Cell-Based Dose Response HTS to Identify Activators of 5'UTR Stem-Loop Driven Prion Protein mRNA Translation in H4 Neuroglioblastoma Cells. [Related pubchem assays: 1829 (Project Summary), 1814 (Primary HTS)]; type: functional; settings: Homo sapiens
[13] = Luminescence Cell-Based Dose Response HTS to Identify Activators of Luciferase Translation or Activity in H4 […] Cells. [Related pubchem assays: 1829 (Project Summary), 1814 (Primary HTS)]; type: functional
[14] = NIH-3T3 fibroblast cytotoxicity, dose response, cytotoxicity control, cell-based, fluorescence, Alamar Blue, secondary assay (AID 2327); type: functional;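 also: NIH-3T3 mouse fibroblasts cultured with fluconazole at 8 µg/mL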
[15] = molecular target: T1, Endoribonuclease toxin MazF; test: activation of MazEF endoribonuclease cleavage – biochemical, fluorescence, single-stranded RNA substrate, uHTS hits, dose response (AID 588481); type: functional
[16] = molecular target: Dual specificity tyrosine-phosphorylation-regulated kinase 1A (Rattus norvegicus, UniProt Q63470); type: biochemical, Homo sapiens
[17] = molecular target: T4, Carboxy-terminal domain RNA polymerase II polypeptide A small phosphatase 1 (Homo sapiens, UniProt Q9GZU7); test: CTDSP1 inhibitors, concentration-response, biochemical, absorbance readout, ultra-high-throughput screen actives (AID 540297); type: functional
T4 sequence (Q9GZU7 whole entry): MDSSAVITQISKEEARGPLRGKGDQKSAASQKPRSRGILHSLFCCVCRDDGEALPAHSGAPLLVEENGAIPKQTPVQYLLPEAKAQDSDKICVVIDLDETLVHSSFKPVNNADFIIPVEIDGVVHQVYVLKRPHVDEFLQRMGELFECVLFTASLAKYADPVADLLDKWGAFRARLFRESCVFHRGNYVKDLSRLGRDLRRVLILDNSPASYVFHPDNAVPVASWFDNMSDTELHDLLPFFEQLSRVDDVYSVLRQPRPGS

[18] = molecular target: T5, Heat shock factor protein 1 (Mus musculus, UniProt P38532); test: enhancement of HSF1-driven luciferase signal – cell-based, NIH3T3, luminescence, dose retest, confirmation (AID 435004); type: functional;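 also: stress induced by proteasome inhibitor MG132 added 30 min after compound; luciferase reporter driven by HSF1 response element in NIH3T3 cells; actives raise luminescence as potentiators of the MG132 stress response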
T5 sequence (P38532 whole entry): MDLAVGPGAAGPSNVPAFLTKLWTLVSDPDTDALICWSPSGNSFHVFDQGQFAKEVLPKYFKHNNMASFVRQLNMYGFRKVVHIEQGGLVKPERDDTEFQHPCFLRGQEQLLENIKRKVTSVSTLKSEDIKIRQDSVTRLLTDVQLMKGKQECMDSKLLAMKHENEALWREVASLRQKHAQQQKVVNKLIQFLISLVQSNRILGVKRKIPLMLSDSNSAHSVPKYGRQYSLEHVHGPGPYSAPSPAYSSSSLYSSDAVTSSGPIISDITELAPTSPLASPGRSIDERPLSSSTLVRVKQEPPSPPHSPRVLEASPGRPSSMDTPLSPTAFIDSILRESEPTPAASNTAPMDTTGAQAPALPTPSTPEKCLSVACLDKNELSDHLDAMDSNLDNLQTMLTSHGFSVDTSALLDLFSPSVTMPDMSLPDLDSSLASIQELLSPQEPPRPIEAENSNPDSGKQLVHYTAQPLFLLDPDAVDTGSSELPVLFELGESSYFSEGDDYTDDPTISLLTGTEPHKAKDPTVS

Vero = test: viability of Vero cells under compound – cytotoxicity control for flavivirus capping enzyme inhibitors (AID 588742); type: functional; settings: Chlorocebus sabaeus
Bcl-2-related protein A1 = molecular target: T6, Bcl-2-related protein A1 (Mus musculus, UniProt Q07440); type: functional;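 also: confirmatory dose–response counterscreen on Bfl-1, used to check hits from a UBC13 polyubiquitin inhibitor campaign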
T6 sequence (Q07440 whole entry): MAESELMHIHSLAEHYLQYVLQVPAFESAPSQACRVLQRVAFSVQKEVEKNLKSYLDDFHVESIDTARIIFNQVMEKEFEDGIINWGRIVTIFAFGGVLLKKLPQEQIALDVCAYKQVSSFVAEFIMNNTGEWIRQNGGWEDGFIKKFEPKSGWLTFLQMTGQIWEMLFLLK

[19] = molecular target: T7, Ubiquitin-conjugating enzyme E2 N (Homo sapiens, UniProt P61088); type: functional
T7 sequence (P61088 whole entry): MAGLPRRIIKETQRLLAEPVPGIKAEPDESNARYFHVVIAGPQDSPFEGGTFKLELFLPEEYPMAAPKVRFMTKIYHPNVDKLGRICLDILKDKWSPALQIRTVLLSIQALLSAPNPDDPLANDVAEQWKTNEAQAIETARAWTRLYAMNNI

[20] = molecular target: T7, Ubiquitin-conjugating enzyme E2 N; type: functional; remark: listed apart in the source
Troponin, cardiac muscle = Troponin, cardiac muscle (Homo sapiens, UniProt P19429+P45379+P63316); test: Fluorescence-based biochemical high throughput dose response assay for activators of the calcium sensitivity of cardiac Regulated Thin Filaments (RTF). [Related pubchem assays (depositor defined):AID493008, AID493018, AID504382, AID504383]; type: protein-complex assay
[21] = HIV-1 Vif–A3G interaction blockers – biochemical, TR-FRET, GST-Vif 1-94, biotin-A3G peptide, dose response retest, primary screen (AID 1117319); type: functional;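 also: TR-FRET signal of purified GST-Vif binding a biotinylated A3G peptide; inhibitors lower the FRET signal by blocking Vif and A3G binding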

DNA dC->dU-editing enzyme APOBEC-3A, sequence (P31941 whole entry): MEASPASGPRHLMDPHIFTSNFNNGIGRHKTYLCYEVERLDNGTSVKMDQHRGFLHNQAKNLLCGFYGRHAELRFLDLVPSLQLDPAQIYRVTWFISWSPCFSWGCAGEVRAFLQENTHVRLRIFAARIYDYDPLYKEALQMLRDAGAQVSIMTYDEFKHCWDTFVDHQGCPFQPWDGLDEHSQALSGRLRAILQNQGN
DNA dC->dU-editing enzyme APOBEC-3G, sequence (Q9HC16 whole entry): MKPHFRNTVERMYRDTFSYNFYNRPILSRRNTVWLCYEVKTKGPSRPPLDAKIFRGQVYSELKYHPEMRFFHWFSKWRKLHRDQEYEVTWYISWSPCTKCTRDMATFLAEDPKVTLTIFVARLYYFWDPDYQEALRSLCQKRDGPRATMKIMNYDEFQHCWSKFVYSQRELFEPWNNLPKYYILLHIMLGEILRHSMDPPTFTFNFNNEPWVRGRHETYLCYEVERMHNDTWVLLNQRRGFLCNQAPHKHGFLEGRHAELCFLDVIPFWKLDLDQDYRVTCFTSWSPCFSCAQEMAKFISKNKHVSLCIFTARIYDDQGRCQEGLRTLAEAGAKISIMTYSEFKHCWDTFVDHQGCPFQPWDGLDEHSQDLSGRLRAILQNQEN

For COc1cc2c(cc1OC)-c1c(OC)c(OC)cc3c1[C@H](C2)[N+](C)(C)CC3 [GLAUCINE METHIODIDE], the IC50 [1] was 1.66 µM (active) and the IC50 [2] was 1.85 µM (active).

For CCn1c(/C=C/c2ccc([N+](=O)[O-])o2)nc2ccccc2c1=O, the EC50 [3] was > 120 µM (not active), the AC50 [4] was 4.51 µM (active) and the EC50 [5] was 0.213 µM (active). The AC50 [6] was 8.48 µM (active), the AC50 (HEK293) was 10.8 µM (active) and the EC50 [7] was 0.682 µM (active). The AC50 (INS1) was 3.43 µM (active), the EC50 [8] was > 99 µM (inactive) and the AC50 [9] was 13.6 µM (active). For the same compound, the EC50 [10] was 5.46 µM (inconclusive), the EC50 [11] was 3.14 µM (active) and the EC50 [12] was > 150 µM (inconclusive). The EC50 (H4) was > 120 µM (not active), the EC50 [13] was > 60 µM (not active) and the EC50 [14] was 7.6 µM (inconclusive). The EC50 [15] was > 99 µM (inactive).

In the case of COc1ccc2c(c1)c(=O)oc1c(C)c(OCc3cc(C(=O)O)oc3C)ccc12, the AC50 [16] is reported as 1.51 µM (active) and the IC50 [17] is reported as 9.08 µM (active).

In the case of CCCCN1C(=O)NC(=O)/C(=C/c2c[nH]c3ccccc23)C1=O, the EC50 [8] is reported as > 99 µM (inactive), the EC50 [10] is reported as 28.4 µM (inconclusive) and the EC50 [12] is reported as 29.9 µM (active). For the same compound, the EC50 [15] was > 99 µM (inactive).

For O=C1NC(=S)S/C1=C/c1ccc(OC(=O)c2ccco2)cc1, the EC50 [8] was 16.4 µM (active), the EC50 [18] was > 260 µM (inactive) and the AC50 [16] was 4.1 µM (active). The EC50 [15] was > 99 µM (inactive).

For O=C(NCc1ccco1)c1cc(-c2cccs2)nc2ccccc12, the CC50 (Vero) was > 40 µM (active).

For COc1cccc(/C=N\NC(=O)c2sc(N)nc2C)c1OC, the IC50 (Bcl-2-related protein A1) was > 20 µM (inactive), the IC50 [19] was 0.965 µM (active) and the IC50 [20] was 0.947 µM (active).

In the case of O=C(CSCc1ccc([N+](=O)[O-])cc1)N[N-][C+]1CCCCCC1, the IC50 (Bcl-2-related protein A1) is reported as > 20 µM (inactive), the IC50 [19] is reported as 13.7 µM (active) and the IC50 [20] is reported as 5.71 µM (active).

For CC(=O)C(=CNc1noc(C)c1Br)C(C)=O, the EC50 (Troponin, cardiac muscle) was > 71.6 µM (inactive).

For Cc1cc(Cl)nc(N)n1, the EC50 (Troponin, cardiac muscle) was > 71.4 µM (inactive).

For COc1ccc(S(=O)(=O)N(CCc2ccccc2)CC(=O)NC(C)C)cc1, the IC50 [1] was 5.95 µM (active), the IC50 [21] was > 100 µM (active) and the IC50 [2] was 6.35 µM (active).

With NC(=O)NC(CC(=O)NNC(=O)c1ccccn1)c1ccc(Cl)cc1 (stereo not given) the IC50 (Bcl-2-related protein A1) was > 20 µM (inactive), the IC50 [19] was 12.4 µM (active) and the IC50 [20] was 19.6 µM (active).

For CNc1ccccc1C(C)(C)c1cc(C)[nH]n1, the EC50 (Troponin, cardiac muscle) was > 71.5 µM (inactive).

With CCc1nc(Nc2cccc(O)c2)c2oc3ccccc3c2n1 the AC50 [16] was 9.77 µM (active).
